Patent US12203909B2, “Compositions for conjugating a sulfonephthalein dye to a substrate” (priority 2018, dated 2025)
Read-outs that look alike come from different tables or passages of the source.

How the values were obtained:
[1] = UV-Vis spectrum of HPTS as a function of pH, pH response range; assay type: physicochemical; details: RGB detectors with maximum sensitivity at 460 nm/520 nm/630 nm
Description: An example of modification of 8-hydroxypyrene-1,3,6-trisulfonic acid as its sodium salt is shown below. The 8-hydroxypyrene-1,3,6-trisulfonic acid can also be modified as a salt of a cation other than sodium, such as potassium or ammonium. This compound is suitable as a pH sensitive probe for pH range of 7.0-8.0 for red, green and blue combination photodiode (RGB) detectors with maximum sensitivity at 460 nm/520 nm/630 nm.
The UV-Vis spectrum of HPTS as a function of pH is shown in FIG. 7, while the pH response range for this dye at 454 nm is shown in FIG. 8.

[2] = SPD^−1/SPD^−2 transition, cited from earlier work
[3] = SPD derivative UV-Vis spectral and chemical properties (Table 1); assay type: physicochemical; details: for λ1, nm (SPD^−1 form): pH sensitive wavelength of SPD^−1
Description: The HA and A^− concentrations are related by the Henderson-Hasselbalch equation: pH=pKa+log[A^−]/[H—A] where Ka is the acid dissociation constant, pKa is −log Ka, and [A^−] and [HA] are the concentrations of dissociated and undissociated dye acid form, respectively.
Such compounds are commonly used as pH sensitive indicators for determination of pH of aqueous solutions. […] The structure of suitable SPDs and their conjugate bases are shown generically below, and their spectral and chemical properties are reported in Table 1.
Unmodified SPDs have been used for the preparation of pH sensitive indicators adsorbed on the surface of suitable polymeric materials, such as cellulose based materials. […] In general, substitution with electron acceptor substituents (e.g., Cl, Br in the C2/C5 positions) results in a pKa shift to a lower pH range relative to PR, and substitution with electron donor substituents (e.g., C1-C3 alkyl in the C2, C4 and C5 positions) results in a pKa shift to a higher pH range. […] Examples of such SPDs include bromocresol purple and bromothymol blue.
Measurement of absorbance at specific wavelengths allows for the determination of the concentrations of the acidic and basic forms of the dye. These wavelengths are typically selected based upon the absorbance maxima for each specific dye, although other wavelengths can be employed albeit with diminished sensitivity.

[4] = pH sensitive wavelength of SPD^−2

SMILES: O=S(=O)(O)c1cc(O)c2ccc3c(S(=O)(=O)O)cc(S(=O)(=O)O)c4ccc1c2c34 [8-hydroxypyrene-1,3,6-trisulfonic acid]
- pH range for which suitable as pH sensitive probe [1]: 7.0-8.0

SMILES: Cc1c(C2(c3cc(Br)c(O)c(Br)c3C)OS(=O)(=O)c3ccccc32)cc(Br)c(O)c1Br [Bromocresol Green (BrCrG), Bromocresol Green]
- pKa* SPD^−1/SPD^−2 [2]: 4.7
- λ1, nm (SPD^−1 form) [3]: 432 nm
- λ2, nm (SPD^−2 form) [3, 4]: ~614 nm

SMILES: Cc1cc(C2(c3cc(C)c(O)c(Br)c3)OS(=O)(=O)c3ccccc32)cc(Br)c1O [Bromocresol Purple (BrCrP), Bromocresol Purple]
- pKa* SPD^−1/SPD^−2 [2]: 6.3
- λ1, nm (SPD^−1 form) [3]: 432 nm
- λ2, nm (SPD^−2 form) [3, 4]: 589 nm

SMILES: O=S1(=O)OC(c2cc(Br)c(O)c(Br)c2)(c2cc(Br)c(O)c(Br)c2)c2ccccc21 [Bromophenol Blue]
- pKa* SPD^−1/SPD^−2 [2]: 4.1
- λ1, nm (SPD^−1 form) [3]: 436 nm
- λ2, nm (SPD^−2 form) [3, 4]: 591 nm

SMILES: Cc1c(C2(c3cc(C(C)C)c(O)c(Br)c3C)OS(=O)(=O)c3ccccc32)cc(C(C)C)c(O)c1Br [Bromothymol Blue]
- pKa* SPD^−1/SPD^−2 [2]: 7.1
- λ1, nm (SPD^−1 form) [3]: 427 nm
- λ2, nm (SPD^−2 form) [3, 4]: 602 nm

SMILES: O=S1(=O)OC(c2ccc(O)c(Cl)c2)(c2ccc(O)c(Cl)c2)c2ccccc21 [Chlorophenol Red (ClPR), Chlorophenol Red]
- pKa* SPD^−1/SPD^−2 [2]: 6.7
- λ1, nm (SPD^−1 form) [3]: 436 nm
- λ2, nm (SPD^−2 form) [3, 4]: 575 nm

SMILES: Cc1cc(C2(c3ccc(O)c(C)c3)OS(=O)(=O)c3ccccc32)ccc1O [Cresol Red (CR), Cresol Red]
- λ1, nm (SPD^−1 form) [3]: 430 nm

SMILES: Cc1c(C2(c3cc(C(C)C)c(O)c(CN(CC(=O)[O-])CC(=O)[O-])c3C)OS(=O)(=O)c3ccccc32)cc(C(C)C)c(O)c1CN(CC(=O)[O-])CC(=O)[O-].[Na+].[Na+].[Na+].[Na+] [Methylthymol Blue]
- pKa* SPD^−1/SPD^−2 [2]: 6.0-13.0
- λ1, nm (SPD^−1 form) [3]: 442 nm
- λ2, nm (SPD^−2 form) [3, 4]: 614 nm

SMILES: O=S1(=O)OC(c2ccc(O)cc2)(c2ccc(O)cc2)c2ccccc21 [Phenol Red (PR), Phenol Red]
- pKa (Table 3, PR derivatives): 7.4
- λ1, nm (Table 3, PR derivatives): 431 nm
- λ2, nm (Table 3, PR derivatives): 557 nm
- λ1^pH 6/pH 9 Abs ratio (calculated as OD 430 nm pH 6.0/OD 430 nm pH 9.0): 5.1
- pKa* SPD^−1/SPD^−2 [2]: 7.4
- pKa* SPD^−1/SPD^−2 ([2]; listed as Phenol red (PR)): approximately 7.4
- λ1, nm (SPD^−1 form) [3]: 431 nm
- λ2, nm (SPD^−2 form) [3, 4]: 557 nm
- λ2, nm (SPD^−2 form) ([3]; pH sensitive wavelength of SPD^−2, listed as PR): approximately 557 nm

SMILES: Cc1cc(O)c(C(C)C)cc1C1(c2cc(C(C)C)c(O)cc2C)OS(=O)(=O)c2ccccc21 [Thymol Blue]
- pKa* SPD^−1/SPD^−2 [2]: 8.9
- λ1, nm (SPD^−1 form) [3]: 432 nm
- λ2, nm (SPD^−2 form) [3, 4]: 595 nm

SMILES: Cc1cc(C2(c3cc(C)c(O)cc3C)OS(=O)(=O)c3ccccc32)c(C)cc1O [Xylenol Blue]
- pKa* SPD^−1/SPD^−2 [2]: 8.5
- λ1, nm (SPD^−1 form) [3]: 436 nm
- λ2, nm (SPD^−2 form) [3, 4]: 594 nm

SMILES: Cc1cc(C2(c3cc(C)c(O)c(CN(CC(=O)O)CC(=O)O)c3)OS(=O)(=O)c3ccccc32)cc(CN(CC(=O)O)CC(=O)O)c1O [Xylenol Orange]
- pKa* SPD^−1/SPD^−2 [2]: 6.0-11.7
- λ1, nm (SPD^−1 form) [3]: 436 nm
- λ2, nm (SPD^−2 form) [3, 4]: 583 nm

SMILES: Cc1cc(O)ccc1C1(c2ccc(O)cc2C)OS(=O)(=O)c2ccccc21 [m-Cresol Purple (mCrP), m-Cresol Purple]
- pKa* SPD^−1/SPD^−2 [2]: 8.3
- λ1, nm (SPD^−1 form) [3]: 432 nm
- λ2, nm (SPD^−2 form) [3, 4]: 578 nm
